Reference: patent publication US8779158B2, “Trisubstituted pyrazoles as acetylcholine receptor modulators” (Janssen Pharmaceutica NV, priority 2008, dated 2014)

Biological target: T1, hα7-wt nAChR (Homo sapiens, UniProt P36544)
T1 construct: expressed in transfected cells
Assay: Ca2+ flux imaging (FDSS) (Protocol B), potentiation of the choline response
Assay type: cell-based
Conditions: Ca2+ assay as described in D.1; for EC50: "<5" = activity did not reach a top plateau at maximal concentration; for Emax / Emax at 30 µM: read-out: % Efficacy
Method: Ca^2+ Flux Imaging (FDSS) (Protocol B)
• Hanks buffered saline solution (HBSS, Invitrogen, Belgium), supplemented with 10 mM HEPES (Invitrogen, Belgium), CaCl2 to a final concentration of 5 mM, 0.1% Bovine serum albumin (Sigma-Aldrich NV, Belgium). b) Calcium-Sensitive Dye—Fluo-4AM • Fluo-4AM (Molecular Probes, USA) was dissolved in DMSO containing 10% Pluronic acid (Molecular Probes, USA) to give a stock solution which was diluted in assay buffer supplemented with 5 mM probenicid (Sigma, Aldrich NV, Belgium) to give a final concentration of 2 μM. c) 384-Well Plates • Black 384 well plate black/clear plates, PDL pre-coated (Corning, Incorporated, USA) d) Calcium Flux Measurement • A Functional drug screening system (FDSS, Hamamatsu) was used to measure intracellular free-calcium flux signals. Method
Monolayers of hα7-wt nAChR-expressing cells were grown in multi-well plates, in particular black-sided, transparent bottomed 384 well plates coated with poly-D-lysine for 24 hours prior to loading with a fluorescent calcium indicator, in a particular embodiment loading with fluo-4AM for up to 120 minutes.
PAM activity was detected in real time by applying the compounds to be tested to the loaded cells along with a α7 nicotinic receptor agonist during constant monitoring of cellular fluorescence in a FDSS. Compounds giving peak fluorescent responses greater than the response due to agonist alone, were considered to be α7 nAChR PAM's. In a particular embodiment, the α7 nicotinic receptor agonist was choline, a more particular embodiment choline applied at a sub-maximal concentration of 100 μM. In a further setting of the present invention the compounds to be tested were applied prior to the α7 nicotinic receptor agonist, in a particular embodiment up to 10 minutes prior to the agonist.
A control response to choline was calculated on each plate from the difference in peak in fluorescence in wells receiving either choline or assay buffer alone. Compounds of the present invention were tested at a concentration range from 0.01 μM to 30 μM. Compounds were considered to have an interesting activity when they potentiated the choline signal at least with 200% when tested at a concentration of 30 μM (the efficacy of 100 μM choline was defined as 100% in the absence of a PAM). An EC50 (or pEC50) was determined as a concentration relating to half the maximal effect, when a clear sigmoidal curve with top plateau was obtained.

T1 sequence (P36544 23-502): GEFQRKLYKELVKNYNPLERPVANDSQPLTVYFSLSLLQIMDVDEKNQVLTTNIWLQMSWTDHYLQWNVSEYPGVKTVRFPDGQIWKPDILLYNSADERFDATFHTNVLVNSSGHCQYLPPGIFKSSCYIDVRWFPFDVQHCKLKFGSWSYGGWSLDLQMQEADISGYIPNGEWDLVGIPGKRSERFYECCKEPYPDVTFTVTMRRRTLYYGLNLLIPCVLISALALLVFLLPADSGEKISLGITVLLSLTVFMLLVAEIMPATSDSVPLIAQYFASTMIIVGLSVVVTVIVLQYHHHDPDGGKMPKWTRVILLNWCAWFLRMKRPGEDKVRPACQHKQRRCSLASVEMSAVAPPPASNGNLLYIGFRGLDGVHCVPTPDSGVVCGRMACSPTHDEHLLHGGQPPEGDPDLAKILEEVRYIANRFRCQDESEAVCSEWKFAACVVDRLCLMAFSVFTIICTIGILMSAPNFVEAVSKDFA

| SMILES | EC50 | Emax | Emax at 30 µM |
| --- | --- | --- | --- |
| CNC(=O)Cn1nc(Nc2cc(OC)cc(C(F)(F)F)c2)cc1-c1cc(C)nc(C)c1 [compound 105] | 3160 nM | – | – |
| CNC(=O)Cn1nc(Nc2ccc3c(c2)OC(F)(F)O3)cc1-c1ccncc1C [compound 89] | > 10000 nM | – | – |
| Cc1ccnc(-c2cc(Nc3cc(F)cc(F)c3)nn2CCC(=O)N(C)C)c1 [compound 26] | 2750 nM | 800% | – |
| CC[C@H](O)Cn1nc(Nc2cccc(C(F)(F)F)c2)cc1-c1ccnc(COC)c1 [compound 113] | 1320 nM | – | – |
| Cc1cc(-c2cc(Nc3ccc(F)c(C(F)(F)F)c3)nn2CC[C@H](C)O)ccn1 [compound 49] | 1820 nM | 500% | – |
| CNC(=O)Cn1nc(Nc2ccc(F)c(F)c2)cc1-c1ccnc(NC)c1 [compound 61] | > 10000 nM | – | – |
| Cc1cc(-c2cc(Nc3cc(F)cc(Cl)c3)nn2C[C@H](C)O)ccn1 [compound 42] | 1120 nM | 200% | – |
| CC[C@H](O)Cn1nc(Nc2cc(OC)cc(C(F)(F)F)c2)cc1-c1ccnc(C)c1Cl [compound 115] | 1260 nM | 516% | – |
| CCNC(=O)Cn1nc(Nc2ccc(F)c(F)c2)cc1-c1cccnc1 [compound 16] | > 10000 nM | – | – |
| Cc1ccnc(-c2cc(Nc3ccc(F)c(F)c3)nn2C[C@H](C)O)c1 [compound 24] | 2140 nM | 300% | – |
| CNC(=O)Cn1nc(Nc2ccc(F)c(C(F)(F)F)c2)cc1-c1ccnc(C)c1 [compound 34] | 3390 nM | – | – |
| CCNc1cc(-c2cc(Nc3ccc(F)c(F)c3)nn2C[C@H](C)O)cc(C)n1 [compound 66] | > 10000 nM | – | – |
| CNC(=O)Cn1nc(Nc2cc(OC)cc(C(F)(F)F)c2)cc1-c1ccnc(C)c1C [compound 50] | 6170 nM | 496% | – |
| CNC(=O)Cn1nc(Nc2cc(F)cc(C(F)(F)F)c2)cc1-c1ccncc1C [compound 30] | > 10000 nM | – | – |
| CNC(=O)Cn1nc(Nc2cccc(C(F)(F)F)c2)cc1-c1cccnc1 [compound 13] | > 10000 nM | – | 967% |
| CNC(=O)Cn1nc(Nc2cccc(C(F)(F)F)c2)cc1-c1cc(C)nc(C)c1 [compound 117] | 1480 nM | 835% | – |
| CNC(=O)Cn1nc(Nc2cc(F)c(F)c(F)c2)cc1-c1cc(C)nc(C)c1 [compound 127] | 1020 nM | 616% | – |
| CNC(=O)Cn1nc(Nc2cccc(OC(F)(F)F)c2)cc1-c1cccnc1 [compound 14] | 5130 nM | – | – |
| Cc1cc(-c2cc(Nc3ccc(F)c(F)c3F)nn2CC(=O)NC2CC2)ccn1 [compound 116] | 1230 nM | 596% | – |
| CCNC(=O)Cn1nc(Nc2cccc(C(F)(F)F)c2)cc1-c1cccnc1 [compound 18] | > 10000 nM | – | 592% |
| CNC(=O)Cn1nc(Nc2ccc(F)c(C(F)(F)F)c2)cc1-c1cc(C)nc(C)c1 [compound 114] | 1150 nM | – | – |
| CCNC(=O)Cn1nc(Nc2cccc(OC(F)(F)F)c2)cc1-c1cccnc1 [compound 17] | > 10000 nM | – | – |
| CNC(=O)Cn1nc(Nc2cc(F)cc(Cl)c2)cc1-c1ccnc(C)c1 [compound 33] | 1780 nM | – | – |
| CCNc1cc(-c2cc(Nc3cc(OC)cc(C(F)(F)F)c3)nn2C[C@H](C)O)ccn1 [compound 63] | 3980 nM | 700% | – |
| Cc1cc(-c2cc(Nc3cc(F)c(F)c(F)c3)nn2C[C@H](C)O)ccn1 [compound 44] | 1230 nM | 400% | – |
| CC[C@H](O)Cn1nc(Nc2ccc(F)c(C(F)(F)F)c2)cc1-c1ccc(C)nc1 [compound 29] | 1120 nM | 500% | – |
| CCNc1cc(-c2cc(Nc3cc(F)cc(C(F)(F)F)c3)nn2C[C@H](C)O)ccn1 [compound 64] | 1410 nM | 500% | – |
| CCNC(=O)Cn1nc(Nc2cc(F)cc(C(F)(F)F)c2)cc1-c1ccncc1C [compound 31] | 2690 nM | – | – |

Continued, values first:

| EC50 | Emax | Emax at 30 µM | SMILES |
| --- | --- | --- | --- |
| 525 nM | 927% | – | Cc1cc(-c2cc(Nc3ccc(F)c(F)c3)nn2CC(=O)NC2CC2)cc(C)n1 [compound 160] |
| 912 nM | – | – | COc1cc(Nc2cc(-c3ccnc(C)c3C)n(CCC(=O)N(C)C)n2)cc(C(F)(F)F)c1 [compound 52] |
| 309 nM | – | – | CN(C)C(=O)CCn1nc(Nc2ccc3c(c2)OC(F)(F)O3)cc1-c1ccncc1 [compound 88] |
| 145 nM | – | – | COc1cccc(-c2cc(Nc3ccc(F)c(F)c3)nn2CCC(=O)N(C)C)c1Cl [compound 11] |
| 148 nM | 507% | – | Cc1cc(-c2cc(Nc3ccc(F)c(F)c3)nn2CC(=O)NC2CCC2)cc(C)n1 [compound 171] |
| 182 nM | – | – | Cc1cc(-c2cc(Nc3ccc(F)c(F)c3F)nn2CC(=O)NC2CCC2)cc(C)n1 [compound 182] |
| 240 nM | 737% | – | Cc1cc(-c2cc(Nc3ccc(F)c(C(F)(F)F)c3)nn2CCC(=O)N(C)C)cc(C)n1 [compound 161] |
| 776 nM | – | – | CCNC(=O)Cn1nc(Nc2cc(F)cc(Cl)c2)cc1-c1ccnc(C)c1 [compound 39] |
| 457 nM | 842% | – | Cc1cc(-c2cc(Nc3ccc(F)c(C(F)(F)F)c3)nn2CC(=O)NC2CC2)cc(C)n1 [compound 159] |
| 219 nM | – | – | CCNC(=O)Cn1nc(Nc2cccc(C(F)(F)F)c2)cc1-c1ccc2c(c1)OCCO2 [compound 79] |
| 380 nM | 975% | – | Cc1cc(-c2cc(Nc3ccc(F)c(F)c3F)nn2CC(=O)NC2CC2)cc(C)n1 [compound 156] |
| 126 nM | 462% | – | Cc1cc(-c2cc(Nc3cccc(Cl)c3F)nn2CC(=O)NC2CCC2)cc(C)n1 [compound 175] |
| 437 nM | 444% | – | Cc1cc(-c2cc(Nc3cccc(C(F)(F)F)c3)nn2CC(=O)NC2CCC2)cc(C)n1 [compound 144] |
| 437 nM | – | – | CC[C@H](O)Cn1nc(Nc2cc(F)cc(F)c2)cc1-c1ccnc(Cl)c1 [compound 47] |
| 794 nM | 400% | – | Cc1cc(-c2cc(Nc3ccc(F)c(C(F)(F)F)c3)nn2C[C@H](C)O)cc(N(C)C)n1 [compound 69] |
| 1000 nM | – | – | CCNC(=O)Cn1nc(Nc2cccc(OC(F)(F)F)c2)cc1-c1ccnc(C)c1 [compound 37] |
| 603 nM | 643% | – | Cc1cc(-c2cc(Nc3cccc(OC(F)(F)F)c3)nn2CC(=O)NC2CC2)cc(C)n1 [compound 147] |

| EC50 | Emax | Emax at 30 µM | SMILES |
| --- | --- | --- | --- |
| 646 nM | 710% | – | CCNC(=O)Cn1nc(Nc2cccc(OC(F)(F)F)c2)cc1-c1cc(C)nc(C)c1 [compound 139] |
| 501 nM | – | – | Cc1cc(-c2cc(Nc3ccc(F)c(F)c3)nn2CCC(=O)N(C)C)cc(Cl)n1 [compound 60] |
| 51.3 nM | – | – | CN(C)C(=O)CCn1nc(Nc2ccc(F)c(F)c2)cc1-c1ccc2c(c1)OCCO2 [compound 84] |
| 186 nM | 393% | – | Cc1cc(-c2cc(Nc3cc(F)c(F)c(F)c3)nn2CC(=O)NC2CC2)cc(C)n1 [compound 172] |
| 115 nM | 793% | – | Cc1cc(-c2cc(Nc3cc(F)c(F)c(F)c3)nn2CC(=O)NC2CCC2)cc(C)n1 [compound 179] |
| 562 nM | 519% | – | CNC(=O)Cn1nc(Nc2cccc(Cl)c2F)cc1-c1cc(C)nc(C)c1 [compound 141] |
| 955 nM | – | – | CC[C@H](O)Cn1nc(Nc2cc(OC)cc(C(F)(F)F)c2)cc1-c1ccnc(COC)c1 [compound 99] |
| 525 nM | 568% | – | Cc1cc(-c2cc(Nc3cccc(C(F)(F)F)c3)nn2CC(=O)NC2CC2)cc(C)n1 [compound 150] |
| 135 nM | – | – | CN(C)C(=O)CCn1nc(Nc2cccc(F)c2)cc1-c1ccc2c(c1)OCCO2 [compound 82] |
| 302 nM | 577% | – | Cc1cc(-c2cc(Nc3cccc(Cl)c3F)nn2CC(=O)NC2CC2)cc(C)n1 [compound 169] |
| 219 nM | – | – | CNC(=O)Cn1nc(Nc2ccc(F)c(C(F)(F)F)c2)cc1-c1ccc2c(c1)OCCO2 [compound 75] |
| 214 nM | – | – | CCNC(=O)Cn1nc(Nc2ccc(F)c(C(F)(F)F)c2)cc1-c1ccc2c(c1)OCCO2 [compound 81] |
| 263 nM | 762% | – | CCNC(=O)Cn1nc(Nc2cc(F)c(F)c(F)c2)cc1-c1cc(C)nc(C)c1 [compound 167] |
| 617 nM | 686% | – | COc1cc(Nc2cc(-c3cc(C)nc(C)c3)n(CC(=O)NC3CC3)n2)cc(C(F)(F)F)c1 [compound 138] |
| 437 nM | 750% | – | COc1cc(Nc2cc(-c3cc(C)nc(C)c3)n(CC(=O)NC3CCC3)n2)cc(C(F)(F)F)c1 [compound 162] |
| 389 nM | – | – | Cc1cc(-c2cc(Nc3cc(F)cc(Cl)c3)nn2CCC(=O)N(C)C)ccn1 [compound 41] |
| 776 nM | 409% | – | CCNc1cc(-c2cc(Nc3ccc(F)c(F)c3F)nn2C[C@H](C)O)ccn1 [compound 133] |
